For orientation: IC50 means the concentration needed to halve the response being measured. By Ki is commonly meant the equilibrium dissociation constant of an inhibitor or competing ligand from its target. Read a high Ki as weaker binding.

Consider 13 compounds from ChEMBL document CHEMBL1149532, “Identification of 2-(4,5,6,7-tetrahydro-1H-pyrrolo[3,2-c]pyridin-3-yl)-ethylamine derivatives as novel GnRH receptor antagonists” (Bioorg Med Chem Lett, 2007).

One assay has as its target T1, Gonadotropin-releasing hormone receptor (Homo sapiens, UniProt P30968).
T1 sequence (P30968 whole entry): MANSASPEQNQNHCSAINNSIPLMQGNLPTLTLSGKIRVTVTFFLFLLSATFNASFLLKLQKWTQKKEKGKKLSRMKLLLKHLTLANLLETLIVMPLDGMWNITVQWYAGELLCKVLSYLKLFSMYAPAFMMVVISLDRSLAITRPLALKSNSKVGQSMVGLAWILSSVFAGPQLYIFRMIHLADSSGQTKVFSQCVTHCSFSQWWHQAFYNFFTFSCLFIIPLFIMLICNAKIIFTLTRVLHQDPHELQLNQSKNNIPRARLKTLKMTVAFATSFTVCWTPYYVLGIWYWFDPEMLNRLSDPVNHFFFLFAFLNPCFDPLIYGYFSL
Kind of assay: Inhibition of human GnRHR expressed in RBL cells assessed as inhibition of GnRH-stimulated [3H]inositol phosphate hydrolysis. Format: functional, cell-based.
As to `Cc1cc(C)cc(-c2[nH]c3c(c2[C@H](C)CNCCc2ccncc2)CN(C(=O)C2CCCC2)CC3)c1`, the IC50 was found to be 3480 nM.
As to `Cc1cc(C)cc(-c2[nH]c3c(c2[C@H](C)CNCCc2ccncc2)CN(C(=O)Cc2ccccc2C(F)(F)F)CC3)c1`, the IC50 was 86 nM.
For the compound `Cc1cc(C)cc(-c2[nH]c3c(c2[C@H](C)CNCCc2ccncc2)CN(C(=O)Cc2c(F)cccc2C(F)(F)F)CC3)c1`, the IC50 stood at 62 nM.
Turning to `Cc1cc(C)cc(-c2[nH]c3c(c2[C@H](C)CNCCc2ccncc2)CN(C(=O)Cc2ccccc2F)CC3)c1`, the IC50 worked out at 271 nM.
For `COc1ccccc1CC(=O)N1CCc2[nH]c(-c3cc(C)cc(C)c3)c([C@H](C)CNCCc3ccncc3)c2C1`, the IC50 was 462 nM.
With `Cc1cc(C)cc(-c2[nH]c3c(c2[C@H](C)CNCCc2ccc(C(=O)O)cc2)CN(C(=O)Cc2c(F)cccc2C(F)(F)F)CC3)c1`, the IC50 came out at 22 nM.
For `CC(=O)N1CCc2[nH]c(-c3cc(C)cc(C)c3)c([C@H](C)CNCCc3ccncc3)c2C1`, the IC50 was found to be 8090 nM.
On to `Cc1cc(C)cc(-c2[nH]c3c(c2[C@H](C)CNCCc2ccncc2)CN(C(=O)c2ccccc2)CC3)c1`, for which the IC50 is over 10000 nM.
As to `Cc1cc(C)cc(-c2[nH]c3c(c2[C@H](C)CNCCc2ccncc2)CN(C(=O)C2C(C)(C)C2(C)C)CC3)c1`, the IC50 is 475 nM.
The same measure, in the same setting: in the case of `Cc1cc(C)cc(-c2[nH]c3c(c2[C@H](C)CNCCc2ccncc2)CN(C(=O)C24CC5CC(CC(C5)C2)C4)CC3)c1` it was 546 nM; in that of `Cc1cc(C)cc(-c2[nH]c3c(c2[C@H](C)CNCCc2cc4[nH]nnc4cc2F)CN(C(=O)Cc2c(F)cccc2C(F)(F)F)CC3)c1`, 16 nM; in that of `CCn1c(=O)[nH]c2cc(CCNC[C@@H](C)c3c(-c4cc(C)cc(C)c4)[nH]c4c3CN(C(=O)Cc3c(F)cccc3C(F)(F)F)CC4)ccc2c1=O`, 91 nM.
On the same count and under the same terms, in the case of `Cc1cc(C)cc(-c2[nH]c3c(c2[C@H](C)CNCCc2ccc4nccnc4c2)CN(C(=O)Cc2c(F)cccc2C(F)(F)F)CC3)c1` it was 60 nM.

For the next assay, the target named is T2, Gonadotropin-releasing hormone receptor (Rattus norvegicus, UniProt P30969).
T2 sequence (P30969 whole entry): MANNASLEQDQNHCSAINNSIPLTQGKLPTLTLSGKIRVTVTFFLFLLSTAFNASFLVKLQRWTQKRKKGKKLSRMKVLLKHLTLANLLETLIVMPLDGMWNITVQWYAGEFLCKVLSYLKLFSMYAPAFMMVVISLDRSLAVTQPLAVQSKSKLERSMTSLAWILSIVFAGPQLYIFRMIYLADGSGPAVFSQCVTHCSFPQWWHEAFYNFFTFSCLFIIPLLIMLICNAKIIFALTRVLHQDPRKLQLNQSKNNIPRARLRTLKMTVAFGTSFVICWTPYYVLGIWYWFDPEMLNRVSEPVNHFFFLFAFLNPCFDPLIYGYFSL
Kind of assay: Displacement of [125I]-Tyr5, DLeu6, NMeLeu7, Pro-N-Et-GnRH from cloned rat GnRHR. A general note: Displacement assays read how much labelled ligand stays bound in the presence of the test substance.
In the case of `Cc1cc(C)cc(-c2[nH]c3c(c2[C@H](C)CNCCc2ccncc2)CN(C(=O)C2CCCC2)CC3)c1`, the Ki came out at 18 nM.
The compound `Cc1cc(C)cc(-c2[nH]c3c(c2[C@H](C)CNCCc2ccncc2)CN(C(=O)Cc2ccccc2C(F)(F)F)CC3)c1` gave an inhibitory constant (Ki) of 1.5 nM.
Take `Cc1cc(C)cc(-c2[nH]c3c(c2[C@H](C)CNCCc2ccncc2)CN(C(=O)Cc2c(F)cccc2C(F)(F)F)CC3)c1`: the affinity, expressed as Ki, was 0.5 nM.
The compound `Cc1cc(C)cc(-c2[nH]c3c(c2[C@H](C)CNCCc2ccncc2)CN(C(=O)Cc2ccccc2F)CC3)c1` returned a Ki of 1.8 nM.
As to `COc1ccccc1CC(=O)N1CCc2[nH]c(-c3cc(C)cc(C)c3)c([C@H](C)CNCCc3ccncc3)c2C1`, affinity was put at a Ki of 5.6 nM.
Regarding `Cc1cc(C)cc(-c2[nH]c3c(c2[C@H](C)CNCCc2ccc(C(=O)O)cc2)CN(C(=O)Cc2c(F)cccc2C(F)(F)F)CC3)c1`, the affinity, expressed as Ki, was 2 nM.
The compound `CC(=O)N1CCc2[nH]c(-c3cc(C)cc(C)c3)c([C@H](C)CNCCc3ccncc3)c2C1` yielded a Ki of 120 nM.
`Cc1cc(C)cc(-c2[nH]c3c(c2[C@H](C)CNCCc2ccncc2)CN(C(=O)c2ccccc2)CC3)c1` gave a Ki of 660 nM.
On the same count and under the same terms, in the case of `Cc1cc(C)cc(-c2[nH]c3c(c2[C@H](C)CNCCc2ccncc2)CN(C(=O)C2C(C)(C)C2(C)C)CC3)c1` it was 1.3 nM; in that of `Cc1cc(C)cc(-c2[nH]c3c(c2[C@H](C)CNCCc2ccncc2)CN(C(=O)C24CC5CC(CC(C5)C2)C4)CC3)c1`, 1.5 nM; in that of `Cc1cc(C)cc(-c2[nH]c3c(c2[C@H](C)CNCCc2cc4[nH]nnc4cc2F)CN(C(=O)Cc2c(F)cccc2C(F)(F)F)CC3)c1`, 0.7 nM.
`CCn1c(=O)[nH]c2cc(CCNC[C@@H](C)c3c(-c4cc(C)cc(C)c4)[nH]c4c3CN(C(=O)Cc3c(F)cccc3C(F)(F)F)CC4)ccc2c1=O` returned an inhibition constant Ki of 1.8 nM.
In turn, `Cc1cc(C)cc(-c2[nH]c3c(c2[C@H](C)CNCCc2ccc4nccnc4c2)CN(C(=O)Cc2c(F)cccc2C(F)(F)F)CC3)c1` had a Ki of 0.3 nM.

The target in a further assay is T2, Gonadotropin-releasing hormone receptor. The assay is described as follows: Inhibition of GnRHR in rat pituitary cells assessed as inhibition of GnRH-stimulated LH release. Format: functional, cell-based, Pituitary gland cell.
Take `Cc1cc(C)cc(-c2[nH]c3c(c2[C@H](C)CNCCc2ccncc2)CN(C(=O)C2CCCC2)CC3)c1`: the IC50 was found to be 250 nM.
Consider `Cc1cc(C)cc(-c2[nH]c3c(c2[C@H](C)CNCCc2ccncc2)CN(C(=O)Cc2ccccc2C(F)(F)F)CC3)c1`, for which the IC50 stood at 47 nM.
For the compound `Cc1cc(C)cc(-c2[nH]c3c(c2[C@H](C)CNCCc2ccncc2)CN(C(=O)Cc2c(F)cccc2C(F)(F)F)CC3)c1`, the IC50 is 57 nM.
As to `Cc1cc(C)cc(-c2[nH]c3c(c2[C@H](C)CNCCc2ccncc2)CN(C(=O)Cc2ccccc2F)CC3)c1`, the IC50 came out at 280 nM.
In the case of `Cc1cc(C)cc(-c2[nH]c3c(c2[C@H](C)CNCCc2ccncc2)CN(C(=O)C2C(C)(C)C2(C)C)CC3)c1`, the IC50 was found to be 96 nM.
For the compound `Cc1cc(C)cc(-c2[nH]c3c(c2[C@H](C)CNCCc2ccncc2)CN(C(=O)C24CC5CC(CC(C5)C2)C4)CC3)c1`, the IC50 came out at 63 nM.
Consider `Cc1cc(C)cc(-c2[nH]c3c(c2[C@H](C)CNCCc2cc4[nH]nnc4cc2F)CN(C(=O)Cc2c(F)cccc2C(F)(F)F)CC3)c1`, for which the IC50 was found to be 28 nM.
In the case of `Cc1cc(C)cc(-c2[nH]c3c(c2[C@H](C)CNCCc2ccc4nccnc4c2)CN(C(=O)Cc2c(F)cccc2C(F)(F)F)CC3)c1`, the IC50 was 68 nM.
